Reference: patent US20250034196A1, “ESTER DERIVATIVES OF N4-HYDROXYCYTIDINE AND USE THEREOF” (priority 2021, published 2025)

Columns and labels:
[1] = system: SARS-CoV-2 Omicron B.1.1.529 variant; experiment: microbe, parasite or virus in culture; conditions: Severe acute respiratory syndrome coronavirus 2, Vero C1008, 96 h
[2] = system: SARS-CoV-2 Omicron B.1.1.529 variant; conditions: Vero E6

CC(C)C(=O)OC[C@H]1O[C@@H](n2ccc(NO)nc2=O)[C@H](O)[C@@H]1O [Molnupiravir]
EC50 [1]: 15.1 µM
EC90 [1]: 23.4 µM
SI (CC50/EC50) [2]: >6.65

CC(=O)ONc1ccn([C@@H]2O[C@H](CO)[C@@H](O)[C@H]2O)c(=O)n1 [EX-2]
EC50 [1]: 1.6 µM
EC90 [1]: 2.48 µM
SI (CC50/EC50) [2]: 11.38
